# In patent publication US20030092633A1, “Preventing desensitization of receptors” (priority 2001, published 2003):
# Assays:
# [1] = Example VI: cystic fibrosis patient with shortness of breath; type: in vivo; conditions: inhaled GSNO, 3 cc of a 10 mM solution, pH 7, 4×/day
# Protocol: A person with cystic fibrosis enters the hospital complaining of shortness of breath. […] They are started on inhaled GSNO (3 cc of a 10 mM solution, pH 7, 4×/day).
# [2] = Example III: patient who cannot be removed from bypass after coronary artery bypass grafting; type: in vivo; conditions: intravenous GSNO 2 nmol per kg per minute, after two hours
# From the text: A person with an ejection fraction of 17% undergoes coronary artery bypass grafting. The surgeons are unable to remove the patient from bypass.
# [3] = Example IV: metastatic prostate cancer patient with bone pain unresponsive to opiates; type: in vivo; conditions: intravenous GSNO 10 nmol per kg per minute in conjunction with morphine
# From the text: A person with metastatic prostate cancer is suffering from severe bone pain unresponsive to opiates.
# [4] = Example II: patient on left ventricular assist device awaiting cardiac transplantation; type: in vivo; conditions: IV GSNO 4 nmol per kg per minute
# From the text: A person awaiting cardiac transplantation is placed a left ventricular assist device, but continues to suffer from severe shortness of breath.
# [5] = Example I: patient with class 4 congestive heart failure; type: in vivo
# Protocol: A person with class 4 congestive heart failure enters the hospital with shortness of breath and bradyacardia. […] The patient is subsequently switched to IV dobutamine at 10 μg per kg per minute titrated to cardiac output. Over the following three days the drug is increased to 30 μg per kg per minute to maintain cardiac output. […] The patient undergoes bypass surgery and does well even though they have been viewed as at high risk.
# β-adrenergic receptor = assay: Saturation binding with radiolabeled 125I-cyanopindolol in purified cardiac membrane of treated mice; type: in vivo
# Protocol: Mice were treated with 10 ng/kg/day of GSNO or PBS infused continuously for 1 week through an azlet miniosmotic pump placed subcutaneously. Another set of mice was treated for 7 days with isoproterenol (30 mg/kg/day), and the fourth and final group received for 7 days, isoproterenol (30 mg/kg/day) plus GSNO (10 ng/kg/day). The mice were sacrificed and heart tissue was removed. Saturation binding with radiolabeled 1^125-cyanopindolol was carried out in purified cardiac membrane according to the procedure of Iaccarino et al, Circulation 98, 17A3-17A9 (1998).
# GRK = GRK phosphorylation of synthetic peptide substrate with 32P-ATP (isolated system); type: biochemical; conditions: GSNO 500 μM, 50 μM, 5 μm; counts per minute; FIG. 3
# Protocol: An isolated system was provided consisting of medium, GRK, standard synthetic peptide substrate and radiolabeled ^32P-adenosine triphosphate, i.e., ^32P-ATP, as a source of phosphate. Runs were carried out on the system without additives, and with 500 μM glutathione (GSH) present and with GSNO (500 μM) present or with GSNO (50 μM) present or with GSNO (5 μm) present. The amount of bound ^32P was measured in counts per minute (CPM).
# [6] = Ratio of heart weight to body weight after 1 week continuous infusion; type: in vivo; conditions: mice, infused continuously 1 week; GSNO 10/ng/kg/day; isoproterenol 30 mg/kg/day; combination 10 mg/kg/day GSNO plus 30 mg/kg/day isoproterenol; FIG. 1
# Protocol: Mice were treated with 10/ng/kg/day of GSNO, or with PBS (control) or with isoproterenol (at a dosage of 30 mg/kg/day) or with 10 mg/kg/day of GSNO plus 30 mg/kg/day isoproterenol, infused continuously for 1 week. The animals were sacrificed and the hearts were weighed and a ratio of heart weight to body weight was determined for each case. The results are set forth in FIG. 1 where hw:bw, i.e., the legend on the vertical axis, is the ratio of heart weight to total body weight and “ISO” means isoproterenol. […] The increase in size of heart (hypertrophy) is an advantage especially in the case of a patient on a left ventricular heart assist device awaiting heart transplant and in the case of a patient who has had heart surgery and cannot be disconnected from a heart pump without loss of heart function. The asterisks in FIG. 1 mean […] compared to control.
# [7] = Example VII: patient with rheumatoid arthritis and pulmonary infiltrates; type: in vivo; conditions: intravenous ethyl nitrite 2 nmol per kg per minute
# From the text: A person with rheumatoid arthritis and pulmonary infiltrates complains of shortness of breath and knee pain.
# [8] = Example V: heroine addict, dose tapering, withdrawal symptoms; type: in vivo, patient; conditions: ethyl nitrite intravenously 2 nmol per kg per minute
# From the text: A heroine addict enters a clinic where their dose is tapered gradually. In order to avoid symptoms of withdrawal, ethyl nitrite is started intravenously at 2 nmol per kg per minute and symptoms of withdrawal, including sweats and shaking, are ameliorated.
smiles,measurement,setting,value
"N[C@@H](CCC(=O)N[C@@H](CSN=O)C(=O)NCC(=O)O)C(=O)O [GSNO, S-nitrosoglutathione]",FEV1 (acute),[1],does not change acutely
same,blood pressure,[1],remains stable
same,symptoms of shortness of breath,[1]; with corresponding improvement in FEV1,resolve over the following 48 hours
same,removal from bypass,[2],successfully removed from bypass
same,bone pain,[3],relieves their pain
same,cardiac output,[4],increase in cardiac output
same,shortness of breath,[4],decrease in shortness of breath
same,cardiac output,"[5]; IV GSNO 2 nmol per kg per minute, on dobutamine 30 μg per kg per minute, over the following 24 hours",improved
same,amount of β-adrenergic receptor,"β-adrenergic receptor; GSNO 10 ng/kg/day infused 1 week, no isoproterenol",40 fmol per mg/protein
same,amount of bound 32P (incorporation of 32P into substrate),GRK,concentration dependent reduction in incorporation of ^32P
same,"ratio of heart weight to body weight (hw:bw), size of heart muscle",[6],increases the size of the heart muscle
N[C@@H](CSN=O)C(=O)O [S-nitroso-cysteine],amount of bound 32P (incorporation of 32P into substrate),GRK,same result of GRK inhibition and interference with substrate phosphorylation
CCON=O [ethyl nitrite],knee pain,[7],decrease in knee pain
same,respiratory status,[7],improvement in respiratory status
same,"symptoms of withdrawal, including sweats and shaking",[8],ameliorated
"CC(C)NCC(O)c1ccc(O)c(O)c1 (stereo not drawn) [isoproterenol, reference compound]",symptoms (shortness of breath and bradyacardia),[5]; 10 μg per minute intravenous isoproterenol,resolution of symptoms
same,amount of β-adrenergic receptor,"β-adrenergic receptor; isoproterenol 30 mg/kg/day for 7 days, no GSNO",20 fmol per milligram protein
same,"ratio of heart weight to body weight (hw:bw), size of heart muscle",[6],increased the size of the heart muscle
